Legend:
[1] = calcium chelation value of crude ligand; format: physicochemical; parameters: unit not given here
Experimental: (§1) The diethanolamine derivatives and maleic anhydride can be synthesized by the reaction according to equation (I). The diethanolamine precursor, maleic anhydride, and selected catalyst were added into about 15-20 mL of dichloromethane solvent, wherein the amounts of each compounds were shown in table 1. Then, the obtained mixture was refluxed at the temperature of 50° C. until the reaction was completed. The amount of precursors being used was monitored. The solvent was removed from the obtained product. The obtained product was dissolved in 50 mL of distilled water and washed with dichloromethane for at least 3 times (30 mL each). After being washed, the obtained product was dried under vacuum and analyzed for its property using ^1H NMR spectroscopy and liquid chromatography mass spectrometry (LC/MS) technique.
as §1, with “succinic” for “maleic”, “(II).” for “(I).”, “3.” for “1.”, “in” for “in 50 mL of”, “water (50 mL)” for “water”
as §1, with “and succinic” for “and maleic”, “equation (III).” for “equation (I).”, “precursor, phthalic” for “precursor, maleic”, “table 5.” for “table 1.”, “in” for “in 50 mL of”, “water (50 mL)” for “water”

[2] = stability constant by complex titration; format: physicochemical; conditions: synthesized chelating agent
From the text: The analysis of stability constant between the synthesized chelating agent and metal ions can be performed by complex titration wherein the stability constant of the synthesized chelating agent and metal ions comparing to the previous disclosed degradable chelating agent can be performed according to table 7.

[3] = crude of ligand 2-1 to ligand 2-9 without purification
[4] = crude of ligand 1-1 to ligand 1-11 without purification
[5] = crude of ligand 3-1 to ligand 3-7 without purification

`O=C(O)CCC(=O)OCCN(CCOC(=O)CCC(=O)O)C(=O)CCC(=O)O` [ligand 2-6] showed a calcium chelation value [1, 3] of 87.

In the case of `O=C(O)/C=C/C(=O)OCCN(CCOC(=O)/C=C/C(=O)O)C(=O)/C=C/C(=O)O` [ligand 1-4], the calcium chelation value [1, 4] was 9.

`O=C(O)CCC(=O)OCCN(CCOC(=O)CCC(=O)O)C(=O)CCC(=O)O` [ligand 2-3] gave a calcium chelation value [1, 3] of 55.

For `O=C(O)c1ccccc1C(=O)OCCN(CCOC(=O)c1ccccc1C(=O)O)C(=O)c1ccccc1C(=O)O` [ligand 3-7], the calcium chelation value [1, 5] was 76.

`O=C(O)c1ccccc1C(=O)OCCN(CCOC(=O)c1ccccc1C(=O)O)C(=O)c1ccccc1C(=O)O` [ligand 3-5] showed a calcium chelation value [1, 5] of 75.

In the case of `O=C(O)/C=C/C(=O)OCCN(CCOC(=O)/C=C/C(=O)O)C(=O)/C=C/C(=O)O` [ligand 1-8], the calcium chelation value [1, 4] was 58.

With `O=C(O)CCC(=O)OCCN(CCOC(=O)CCC(=O)O)C(=O)CCC(=O)O` [ligand 2-2] the calcium chelation value [1, 3] was 8.

Work on `O=C(O)CCC(=O)OCCN(CCOC(=O)CCC(=O)O)C(=O)CCC(=O)O` [ligand 2-7] yielded a calcium chelation value [1, 3] of 42.

In the case of `O=C(O)CCC(=O)OCCN(CCOC(=O)CCC(=O)O)C(=O)CCC(=O)O` [ligand 2-9], the calcium chelation value [1, 3] was 85.

With `O=C(O)/C=C/C(=O)OCCN(CCOC(=O)/C=C/C(=O)O)C(=O)/C=C/C(=O)O` [ligand 1-7] the calcium chelation value [1, 4] was 46.

Compound `O=C(O)CCC(=O)OCCN(CCOC(=O)CCC(=O)O)C(=O)CCC(=O)O` [ligand 2-5] has a calcium chelation value [1, 3] of 45.

In the case of `O=C(O)/C=C/C(=O)OCCN(CCOC(=O)/C=C/C(=O)O)C(=O)/C=C/C(=O)O` [ligand 1-2], the calcium chelation value [1, 4] was 15.

In the case of `O=C(O)c1ccccc1C(=O)OCCN(CCOC(=O)c1ccccc1C(=O)O)C(=O)c1ccccc1C(=O)O` [ligand 3-1], the calcium chelation value [1, 5] was 25.

With `O=C(O)CCC(=O)OCCN(CCOC(=O)CCC(=O)O)C(=O)CCC(=O)O` [ligand 2-1] the calcium chelation value [1, 3] was 5.

`O=C(O)/C=C/C(=O)OCCN(CCOC(=O)/C=C/C(=O)O)C(=O)/C=C/C(=O)O` [ligand 1-10] gave a calcium chelation value [1, 4] of 62.

`O=C(O)CCC(=O)OCCN(CCOC(=O)CCC(=O)O)C(=O)CCC(=O)O` [ligand 2-4] gave a calcium chelation value [1, 3] of 21.

For `O=C(O)/C=C/C(=O)OCCN(CCOC(=O)/C=C/C(=O)O)C(=O)/C=C/C(=O)O` [ligand 1-5], the calcium chelation value [1, 4] was 3.

For `O=C(O)/C=C/C(=O)OCCN(CCOC(=O)/C=C/C(=O)O)C(=O)/C=C/C(=O)O` [ligand 1-11], the calcium chelation value [1, 4] was 60.

Work on `O=C(O)/C=C/C(=O)OCCN(CCOC(=O)/C=C/C(=O)O)C(=O)/C=C/C(=O)O` [ligand 1-1] yielded a calcium chelation value [1, 4] of 4.

Work on `O=C(O)c1ccccc1C(=O)OCCN(CCOC(=O)c1ccccc1C(=O)O)C(=O)c1ccccc1C(=O)O` [ligand 3-3] yielded a calcium chelation value [1, 5] of 81.

With `O=C(O)/C=C/C(=O)OCCN(CCOC(=O)/C=C/C(=O)O)C(=O)/C=C/C(=O)O` [ligand 1] the stability constant ([2]; aluminium (Al^3+)) was 10.7, the stability constant ([2]; barium (Ba^2+)) was 7.8 and the stability constant ([2]; cadmium (Cd^2+)) was 8.5. It also gave a stability constant ([2]; calcium (Ca^2+)) of 9.3, a stability constant ([2]; cobolt (Co^2+)) of 10.4 and a stability constant ([2]; copper (Cu2+)) of 12.8. For the same compound, the stability constant ([2]; iron (Fe^2+)) was 14.8, the stability constant ([2]; iron (Fe^3+)) was 9.5 and the stability constant ([2]; magnesium (Mg^2+)) was 8.3. For the same compound, the stability constant ([2]; manganese (Mn^2+)) was 10.4, the stability constant ([2]; mercury (Hg^2+)) was 7.8 and the stability constant ([2]; nickel (Ni^2+)) was 5.0. It also gave a stability constant ([2]; strontium (Sr^2+)) of 7.7, a stability constant ([2]; tin (Pb^2+)) of 11.4 and a stability constant ([2]; zinc (Zn^2+)) of 9.0.

`O=C(O)c1ccccc1C(=O)OCCN(CCOC(=O)c1ccccc1C(=O)O)C(=O)c1ccccc1C(=O)O` [ligand 3-6] showed a calcium chelation value [1, 5] of 88.

Compound `O=C(O)CCC(=O)OCCN(CCOC(=O)CCC(=O)O)C(=O)CCC(=O)O` [ligand 2] has a stability constant ([2]; aluminium (Al^3+)) of 11.4, a stability constant ([2]; barium (Ba^2+)) of 6.2 and a stability constant ([2]; cadmium (Cd^2+)) of 7.2. For the same compound, the stability constant ([2]; calcium (Ca^2+)) was 10.1, the stability constant ([2]; cobolt (Co^2+)) was 7.5 and the stability constant ([2]; copper (Cu2+)) was 10.5. For the same compound, the stability constant ([2]; iron (Fe^2+)) was 12.3, the stability constant ([2]; iron (Fe^3+)) was 7.5 and the stability constant ([2]; magnesium (Mg^2+)) was 8.1. The stability constant ([2]; manganese (Mn^2+)) was 9.1, the stability constant ([2]; mercury (Hg^2+)) was 9.5 and the stability constant ([2]; nickel (Ni^2+)) was 5.4. The stability constant ([2]; strontium (Sr^2+)) was 5.3, the stability constant ([2]; tin (Pb^2+)) was 9.9 and the stability constant ([2]; zinc (Zn^2+)) was 7.9.

— US20200095192A1, “BIODEGRADABLE DIETHANOLAMINE DERIVATIVE CHELATING AGENT AND PREPARATION PROCESS THEREOF” (PTT Global Chemical Public Company Limited, priority 2017, published 2020)
